Data reported in patent publication US11597729B2, “Tropomyosin receptor kinase inhibitor, preparation method therefor and use thereof” (JIANGSU VCARE PHARMATECH CO., LTD., priority 2018, dated 2023).

Key:
TrkB = TrkB (Homo sapiens, UniProt Q16620); test: Inhibitory activity test for Trk kinases (γ-33P-ATP isotope test), TrkB; type: biochemical; details: 33P-ATP 10 μM, 2 h reaction; read-out: Kinase IC50 TrkB
Description: (§1) Inhibitory Activity Test for Trk Kinases
(§2) In this experiment, the γ-^33P-ATP isotope test was used to test the inhibition effect of a compound on kinases TrkA, TrkB and TrkC, and the half maximal inhibitory concentration IC50 of the inhibitory activity of the compound on the enzymes was obtained.
(§3) A compound was dissolved in 100% DMSO to a particular concentration, and then the resulting solution was gradient-diluted by an automatic loading device to different concentrations of the test samples (DMSO dissolving solutions).
(§4) 3.1. The reaction substrate was diluted using the base reaction buffer;
(§5) 3.2. The kinase was added into the substrate solution and mixed gently and uniformly;
(§6) 3.3. The compounds of different concentrations diluted in 100% DMSO were added into the kinase solution using an automatic loading system, and incubated for 20 min at room temperature;
(§7) 3.4. ^33P-ATP (10 μM, 10 μCi/μl) was added at room temperature to initiate the kinase reaction, and the reaction was carried out for 2 h.
(§8) The reaction solution was subjected to an ion exchange filtration system to remove unreacted ATP and the generated ADP ions during the reaction. Then, the radiometric quantity of ^33P isotope in the substrate was detected.
(§9) The kinase activity in the system with the addition of the inhibitors of different concentrations was calculated from the radiometric quantity, to obtain the inhibitory effect of the compounds with different concentrations on the kinase activity. Fitting was performed using graphpad prism to obtain IC50 values of the compounds for inhibition.

[1] = Metabolic stability in human liver microsomes; type: in vitro ADME
Description: Testing on Metabolic Stability of Compounds in Human Liver Microsomes
The total volume of an incubation system was 250 μL, and 50 mmol/L PBS buffer (pH=7.4) was used to prepare incubation solutions of liver microsomes from various species with a protein concentration of 0.5 mg/mL. Before the start of the incubation, 2.5 μL of a 100 μmol/L compound to be tested was mixed with 197.5 μL of the above incubation solution, pre-incubated in a 37° C. water bath for 5 min, and then added with a 50 μL reducing coenzyme II solution (5 mmol/L) that was likewise pre-incubated for 5 min to start the reaction (in the reaction system, the protein content of liver microsomes from various species was 0.5 g/L, and the final concentration of the compound to be tested was 1 μmol/L), incubated in a 37° C. water bath with shaking, and taken out at 0, 5, 15, 30, and 60 min. 600 μL of a methanol solution of mixed positive and negative internal standards with internal standards Terfenadine (positive ion internal standard, 25 ng/mL) and Tolbutamide (negative ion internal standard, 50 ng/mL) was immediately added to terminate the reaction. The incubation solution after termination was shaken for 2 min and centrifuged (4° C., 16000 r/min) for 10 min, and the supernatant was taken for LC-MS/MS detection to quantitatively analyze the remaining amount of the parent drug. (DMSO<0.1%).
The concentration of the compound at 0 min incubation was regarded as 100%, and the concentrations at other incubation time points were converted into the remaining percentages. The natural logarithm of the remaining percentage at each time point was linearly regressed against the incubation time, and the slope k was calculated. According to the formula T1/2=−0.693/k, the in vitro half-life was calculated. Clearance in liver microsomes (CLint (μL/min/mg protein)=Ln (2)*1000/T1/2 (min)/Protein Conc(mg/ml)).
Test data of metabolic stability of the compounds of the present invention in human liver microsomes are listed in detail in table 3: […]

TrkC = TrkC (Homo sapiens, UniProt Q16288); test: Inhibitory activity test for Trk kinases (γ-33P-ATP isotope test), TrkC; type: biochemical; details: 33P-ATP 10 μM, 2 h reaction; read-out: Kinase IC50 TrkC
Description: as §1, §2, §3, §4, §5, §6, §7, §8, §9

BaF3-LMNA-NTRK1 = test: Growth inhibition test, CellTiter-Glo, BaF3-LMNA-NTRK1 cells; type: cell-based; details: 72 hours incubation, read-out: Cell GI50 BaF3-LMNA-NTRK1
Description: (§10) Growth Inhibition Test for Tel-NTRK1-BaF3 and BaF3-LMNA-NTRK1 Cells
(§11) In this experiment, the CellTiter-Glo cell proliferation fluorescence assay was used to test the growth inhibitory effect of a compound on tel-NTRK1-BaF3 and BaF3-LMNA-NTRK1 transgenic cells, and the half maximal growth inhibitory concentration GI50 of the compound on the cells was obtained.
A compound to be tested was dissolved in DMSO to formulate 10 mM of a mother solution. The mother solution was 3× diluted to 10 mM, 3.333 mM, 1.111 mM, 0.370 mM, 0.123 mM, 0.041 mM, 0.014 mM, 0.005 mM, and 0.002 mM. The prepared solutions were each stored in a 0.5 ml sterilized dorft tube (Corning, USA). […]
(§12) Logarithmic growth phase cells (2000-2500 cells/well) were inoculated in a 12×8 96-well white opaque cell culture plate (Corning 3570, NY, USA) in a volume of 100 μL per well, and a drug was added to the cell plate (0.1 μL/well) at the final concentration of the compound of 10 μM, 3.3 μM, 1.1 μM, 0.37 μM, 0.12 IM, 0.04 μM, 0.014 IM, 0.005 μM, and 0.002 μM (0.4 uL of the drug solution was added to 400 ul of the cell homogenate, and then mixed uniformly, and the resulting mixture was added at 100 ul per well). The plate was incubated at 37° C. in a 5% CO2 incubator for 72 hours, and then 20 μL CellTiter-Glo cell proliferation fluorescence assay reagent was added. […]

TrkA = TrkA (Homo sapiens, UniProt P04629); test: Inhibitory activity test for Trk kinases (γ-33P-ATP isotope test), TrkA; type: biochemical; details: 33P-ATP 10 μM, 2 h reaction; read-out: Kinase IC50 TrkA
Description: as §1, §2, §3, §4, §5, §6, §7, §8, §9

BaF3-tel-NTRK1 = test: Growth inhibition test, CellTiter-Glo, tel-NTRK1-BaF3 cells; type: cell-based; details: 72 hours incubation, read-out: Cell GI50 BaF3-tel-NTRK1
Description: as §10, §11
A compound to be tested was dissolved in DMSO to formulate 10 mM of a mother solution. The mother solution was 3× diluted to 10 mM, 3.333 mM, 1.111 mM, 0.370 mM, 0.123 mM, 0.041 mM, 0.014 mM, 0.005 mM, and 0.002 mM. The prepared solutions were each stored in a 0.5 ml sterilized dorft tube (Corning, USA). In addition, an equal volume of DMSO solvent was used as a blank control. With 10 concentration gradients, the plate was stored in vacuum at −20° C.
The tel-NTRK1-BaF3 and BaF3-LMNA-NTRK1 cell lines were cultured with RPMI 1640 (Corning, N.Y., USA)+10% fetal bovine serum (Gibico, Invitrogen, USA). After the cells were thawed, they were cultured for two generations to be tested.
as §12, with “added. The plate was allowed to stand for 10 min, and read in the Envision Plate-Reader.” for “added.”
A corresponding […] value RLU of each well was obtained by reading in the Envision Plate-reader. […]
The biochemical activity of the compounds of the present invention was determined by the above experiment, and the measured GI50 values are shown in table 2: […]

Sequence of TrkC (Q16288 32-839, species assumed): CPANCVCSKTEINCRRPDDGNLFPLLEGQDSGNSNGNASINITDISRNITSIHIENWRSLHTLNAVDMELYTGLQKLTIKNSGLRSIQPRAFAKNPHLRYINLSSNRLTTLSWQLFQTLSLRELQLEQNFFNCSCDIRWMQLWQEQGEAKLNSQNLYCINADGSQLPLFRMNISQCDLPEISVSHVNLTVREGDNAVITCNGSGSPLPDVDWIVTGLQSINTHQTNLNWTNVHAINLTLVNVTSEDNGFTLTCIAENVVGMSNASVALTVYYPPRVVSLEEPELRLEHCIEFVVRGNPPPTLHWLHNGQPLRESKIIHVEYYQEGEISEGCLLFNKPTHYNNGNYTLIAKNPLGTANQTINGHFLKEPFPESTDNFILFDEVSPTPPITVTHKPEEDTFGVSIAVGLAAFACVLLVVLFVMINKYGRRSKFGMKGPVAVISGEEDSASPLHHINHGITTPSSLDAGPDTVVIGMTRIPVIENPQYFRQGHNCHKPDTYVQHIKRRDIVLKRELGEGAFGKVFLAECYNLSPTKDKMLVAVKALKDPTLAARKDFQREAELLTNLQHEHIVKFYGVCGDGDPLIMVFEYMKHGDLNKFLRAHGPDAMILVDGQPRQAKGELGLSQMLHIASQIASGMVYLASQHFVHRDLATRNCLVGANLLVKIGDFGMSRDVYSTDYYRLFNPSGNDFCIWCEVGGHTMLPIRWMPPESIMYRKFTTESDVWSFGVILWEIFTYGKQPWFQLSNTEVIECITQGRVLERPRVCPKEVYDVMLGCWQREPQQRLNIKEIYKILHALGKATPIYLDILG
Sequence of TrkB (Q16620 32-822, species assumed): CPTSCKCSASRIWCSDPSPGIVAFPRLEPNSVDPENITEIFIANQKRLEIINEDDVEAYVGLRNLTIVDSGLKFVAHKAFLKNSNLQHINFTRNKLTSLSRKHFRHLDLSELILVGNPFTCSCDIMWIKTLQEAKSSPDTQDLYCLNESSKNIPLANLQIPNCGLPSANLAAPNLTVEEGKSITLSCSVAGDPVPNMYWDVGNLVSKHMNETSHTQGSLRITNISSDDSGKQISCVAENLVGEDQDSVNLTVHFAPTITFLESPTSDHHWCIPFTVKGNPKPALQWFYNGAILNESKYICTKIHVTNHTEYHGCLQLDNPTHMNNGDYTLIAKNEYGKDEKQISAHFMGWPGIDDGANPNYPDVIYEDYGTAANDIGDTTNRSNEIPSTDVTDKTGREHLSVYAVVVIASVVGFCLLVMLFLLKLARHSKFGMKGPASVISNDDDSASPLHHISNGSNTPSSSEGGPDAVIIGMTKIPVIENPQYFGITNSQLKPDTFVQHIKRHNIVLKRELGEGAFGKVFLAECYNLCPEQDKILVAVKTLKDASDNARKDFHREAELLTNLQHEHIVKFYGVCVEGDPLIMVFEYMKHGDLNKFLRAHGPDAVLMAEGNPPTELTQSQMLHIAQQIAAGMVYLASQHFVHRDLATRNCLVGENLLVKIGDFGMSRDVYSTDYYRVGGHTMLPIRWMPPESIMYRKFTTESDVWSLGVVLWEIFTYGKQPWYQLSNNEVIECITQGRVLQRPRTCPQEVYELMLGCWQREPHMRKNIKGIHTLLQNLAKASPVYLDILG
Sequence of TrkA (P04629 33-796, species assumed): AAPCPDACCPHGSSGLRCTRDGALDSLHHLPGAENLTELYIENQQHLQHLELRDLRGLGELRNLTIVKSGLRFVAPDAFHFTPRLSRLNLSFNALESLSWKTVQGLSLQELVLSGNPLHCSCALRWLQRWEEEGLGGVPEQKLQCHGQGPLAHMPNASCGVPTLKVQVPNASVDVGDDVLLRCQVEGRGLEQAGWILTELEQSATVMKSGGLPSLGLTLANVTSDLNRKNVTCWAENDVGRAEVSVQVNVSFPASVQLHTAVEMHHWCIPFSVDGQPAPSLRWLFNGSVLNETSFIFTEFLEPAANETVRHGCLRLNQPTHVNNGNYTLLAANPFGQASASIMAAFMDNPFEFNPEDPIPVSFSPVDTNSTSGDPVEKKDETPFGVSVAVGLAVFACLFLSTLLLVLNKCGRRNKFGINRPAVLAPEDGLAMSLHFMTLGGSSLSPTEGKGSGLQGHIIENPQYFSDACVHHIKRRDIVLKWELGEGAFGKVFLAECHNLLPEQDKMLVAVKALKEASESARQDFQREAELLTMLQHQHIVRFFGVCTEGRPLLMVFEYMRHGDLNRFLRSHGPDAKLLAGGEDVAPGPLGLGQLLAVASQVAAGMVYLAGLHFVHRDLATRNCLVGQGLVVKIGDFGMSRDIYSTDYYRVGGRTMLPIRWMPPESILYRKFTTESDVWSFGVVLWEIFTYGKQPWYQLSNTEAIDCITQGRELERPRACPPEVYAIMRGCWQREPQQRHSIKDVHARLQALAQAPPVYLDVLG

## O=C1NN(C2CC2)CCc2ncc(F)cc2[C@H]2CCCN2c2ccn3ncc1c3n2 [Example 1, (R,I^3E,I^4E)-6-cyclopropyl-3^5-fluoro-6,7-diazepine-1(5,3)-pyrazolo[1,5-a]pyrimidine-3(3,2)-pyridine-2(1,2)-pyrrolidine cyclooctane-8-one]
TrkB
  IC50: 0.57 nM
[1]; human liver microsomes 0.5 mg/mL, compound 1 μmol/L, 37° C., 60 min
  Remaining % (60 min): 52.26%
[1]; human liver microsomes, negative control incubation, 60 min
  Negative control Remaining % (60 min): 98.1%
[1]; human, liver microsomes, pH 7.4
  half-life at 1 μmol/L: 1.11 h
[1]; pH 7.4, human liver microsomes 0.5 mg/mL, compound 1 μmol/L, read-out: Clint (μL/min/mg protein)
  microsomal CLint at 1 μmol/L: 20.8 µL/min/mg
TrkC
  IC50: 0.25 nM
BaF3-LMNA-NTRK1
  GI50: 15.1 nM
TrkA
  IC50: 4.23 nM
BaF3-tel-NTRK1
  GI50: 12 nM
